{
  "source": "paper PMC9873809",
  "about": "“Identification of a human estrogen receptor α tetrapeptidic fragment with dual antiproliferative and anti-nociceptive action” (Scientific Reports, 2023)",
  "key": {"[1]": {"tested_on": "tactile hypersensitivity in the murine CFA model", "test": "von Frey test in Complete Freund's Adjuvant (CFA) inflammatory pain model", "assay_type": "in vivo, C57BL/6j mice", "conditions": "for 50% paw withdrawal threshold (PWT): seven days after CFA, mean ± SEM, n = 8 mice", "description": "Experiments were performed according to ethical guidelines established by the International Association for the Study of Pain (IASP) and the relevant European legislation (Directive 2010/63/EU). They were also approved by the Auvergne Animal Experiment Ethics Committee, CE2A and the French Ministry of Higher Education and Innovation. Eight-week-old male C57BL/6j mice were purchased from Janvier Laboratories (Le Genest-Saint-Isle, France), housed under standard laboratory conditions (12 h light/dark cycle, temperature of 21 to 22 °C, 55% humidity under specific pathogen free conditions) and acclimatized for a week before testing. Food and water were available ad libitum.\nDesign, analysis and reporting were carried out in accordance with the ARRIVE guidelines[56]–[58]. To ensure the methodological quality of the study, Rice et al. recommendations were followed. Animals were randomly divided into eight mice per group. To assess different treatment effects over the same time interval and to avoid, thereby, unverifiable and time-variable environmental influence, treatments were administered following the method of equal blocks. All experiments were performed in a quiet room by the same blinded experimenter. ERα17p and PLMI peptides were dissolved in a saline solution prior to intraperitoneal administration (10 mL/kg).\nA persistent inflammatory pain model was produced by injection under brief anesthesia (2.5% isoflurane inhalation) of Complete Freund's Adjuvant (CFA, 10 µL) on the left ankle joint of mice[60]. CFA consisted of Mycobacterium butyricum (Difco Laboratories, Detroit, USA) dissolved in paraffin oil and saline (0.9% NaCl). The solution was autoclaved 20 min at 120 °C. Behavior tests were performed before and seven days after CFA injection.\nOn behavior testing day, the mice were placed individually in Plexiglas compartments (8 cm (L) × 3.5 cm (W) × 8 cm (D)) and on an elevated wire mesh platform to allow access to the ventral surface of the hindpaws, and were allowed to acclimatize for one hour before testing. Von Frey filaments (0.02 to 1.4 g) were applied perpendicularly to the plantar surface of the paw. Paw withdrawal and licking were considered as positive responses. 50% paw withdrawal threshold (PWT) was determined using an adaptation of the Dixon up–down method, as described previously.\nAll data were analyzed using the Prism 8 software (GraphPad™ Software Inc., San Diego, CA). Data were tested for normality (Shapiro–Wilk test) and equal variance (Fisher test). For kinetic data, multiple measurements were compared with repeated measures (two-way ANOVA). Post hoc comparisons were performed by the Tukey’s test. […] AUC was expressed as mean ± SEM (g × min). […]"}, "[2]": {"test": "Circular dichroism of the soluble peptide pool over time", "assay_type": "physicochemical", "conditions": "pH 9.1, peptide 100 μM, 25 °C, between 5 and 22 h", "description": "CD spectra were recorded on a Jasco J-815 apparatus (Lisses, France) using quartz cells (0.1 cm path length, Hellma GmbH, Müllheim, Germany). Each peptide was dissolved (final concentration: 100 μM) in appropriate buffer solution, at pH 9.1. After an equilibration period of 5 min at 25 °C, CD spectra were recorded over the 190 to 260 nm wavelength range. Measurements were carried out at 1 nm intervals. Data points were acquired every 0.5 nm in continuous scanning mode (speed = 20 nm.min^−1, bandwidth = 1 nm). CD spectra were recorded after 0, 5, 22 and 28 h (unit: mean residue ellipticity [θ]MRE, in deg.cm^2.dmol^−1). Acquisitions were carried out using the software Spectra Manager. Recorded data (mean of five scans) were treated with GraphPad Prism. Buffer background was subtracted to avoid buffer and cell contributions."}, "[3]": {"test": "Solubility as observed when preparing biological assays", "conditions": "culture media; reason for exclusion from biological assays"}, "[4]": {"test": "Transmission electron microscopy of aggregates", "assay_type": "physicochemical", "description": "Peptides were dissolved in appropriate buffer at pH 3.4, 7.4 and 9.1 to reach peptide stock solutions of 100 μM. Each peptide was incubated in an Eppendorf tube during 48 h. One drop (20 μL) of each peptide solution was adsorbed onto glow-discharged carbon coated 200 mesh copper grids. After 2 min, the grids were dried and negatively stained during 45 s with a 2.5% uranyl acetate solution. Grids were blotted, dried, and examined by using a Zeiss 912 Omega (Zeiss, Marly-le-Roi, France) […] or a JEOL 2100 HC (Croissy, France) […]."}, "[5]": {"test": "ThT fluorescence kinetics of fibril/aggregate formation", "assay_type": "physicochemical", "conditions": "ThT 10 μM, mean of triplicate", "description": "Fibrils were detected by measuring the fluorescence intensity of Thioflavin T (ThT)[53]. A plate reader (Fluostar Optima, BMG LabTech, Ortenberg, Germany) and standard 96-wells flat-bottom black microtiter plates (Costar 3792, Sigma Aldrich, Saint-Louis, USA) were used in combination with excitation and emission filters, at 440 and 485 nm, respectively (ThT concentration: 10 μM). Peptide concentrations varied from 10 to 100 μM, at pH 3.4 (0.2 M glycine HCl in water), pH 7.4 (0.2 M KH2PO4 in water, 0.2 M K2HPO4, in water) and pH 9.1 (0.2 M glycine NaOH in water). The microtiter plate was shaken prior to measurements. Fluorescence intensity (arbitrary units, u.a.) was recorded every 10 min, during 40 h. Resulting curves were analyzed by using GraphPad Prism. Data are the means of experiments performed in triplicate."}, "inflammation and pain": {"tested_on": "inflammation and pain", "conditions": "cited from earlier work"}, "[6]": {"tested_on": "GPER knockout (KO) MDA-MB-231 cells", "test": "Cell growth by automated cell counting", "assay_type": "cell-based, human", "conditions": "GPER KO MDA-MB-231, 72 h, increasing concentrations, 2.5% charcoal-stripped FBS, three independent experiments in triplicate", "description": "(§1) MCF-7 (ER + , PR + , […] , GPER +) and HS578T (ER-, PR-, Her2-, GPER +) cells were cultured in RPMI-1640 and DMEM medium (Life Technologies, Courtaboeuf, France), respectively, supplemented with 10% (v/v) fetal bovine serum (FBS), 100 U/mL penicillin and 100 µg/mL streptomycin. MDA-MB-231 triple negative breast cancer cells were obtained from the ATCC (Manassas, VA, USA). Cells were maintained in DMEM/F12 (Dulbecco’s modified Eagle’s medium) with phenol red, supplemented with 5% fetal bovine serum (FBS) and 1% penicillin/streptomycin (Thermo Fisher Scientific, Monza, Italy). Cells were grown in a 37 °C incubator with 5% CO2.\n(§2) Short guide RNA (sgRNA) sequence targeting human GPER was designed using the E-CRISP sgRNA Designer (http://www.e-crisp.org/E-CRISP/) and was cloned into the pSpCas9 (BB)-2A-Puro (PX459) plasmid, as previously described. The GPER sgRNA sequence used to generate the GPER knockout is as followed: sgGPER: 5′-[…]-3′. Next, the vector with sgRNA was transiently transfected into MDA-MB-231 cells using Lipofectamine LTX (Life Technologies, Milan Italy). […]\n(§3) MDA-MB-231 WT and GPER KO cells were seeded in 24-well plates in regular growth medium. […] Cells were counted on day 4 using an automated cell counter (Life Technologies, Milan, Italy), following the manufacturer’s recommendations."}, "[7]": {"tested_on": "GPER (WT) MDA-MB-231 cells", "test": "Cell growth by automated cell counting", "assay_type": "cell-based, human", "conditions": "WT MDA-MB-231, 72 h, increasing concentrations, 2.5% charcoal-stripped FBS, three independent experiments in triplicate", "description": "as §1, §2, §3"}, "[8]": {"assay_type": "physicochemical", "conditions": "for change of intensity of aliphatic proton signals (1H-NMR): 298 K, 65 h, 500 MHz", "description": "ERα17p fibrilization was followed at 298 K by using a NMR spectrometer (Bruker AVANCE III 500 MHz) equipped with a triple resonance (^1H, ^15 N, ^13C) cryoprobe. Each sample (100 μM) was prepared extemporaneously in appropriate buffer at pH 3.4, 7.4 and 9.1. A 10:90 D2O:H2O mixture was added to the buffer to reach a final D2O percentage of 7.5%. The final volume was of 520 μL in a 5 mm tube. 1D proton experiments (eight scans) were carried out over 65 h, with a total of 258 spectra (1 spectrum each 15 min, 8 scan/spectrum). Spectra analysis was carried out with the Bruker Topspin software by focusing between 0.80 and 3.60 ppm aliphatic side-chains region."}, "GPER": {"molecular_target": "GPER", "conditions": "binding within the ligand-binding site of GPER; cited from earlier work", "description": "In physiological conditions (complete serum) and at the concentration of 10 μM, ERα17p triggers membrane-initiated pro-apoptotic events, in both ERα-positive and -negative breast cancer cell lines with, however, a preference for ERα-positive cancer cells. It decreases the ratio Bcl-xl/Bax, increases cleaved caspase-9 and induces a redistribution of actin through a mechanism requiring PI3K, ROCK and p38 MAPK, depending on cell line[21],[22]. Moreover, ERα17p induces a proteasome-dependent decrease of the levels of the G protein-coupled estrogen receptor (GPER), of activated EGFR and ERK1/2 ..."}, "[9]": {"conditions": "cited from earlier work", "text": "Then, we have explored the biological effects of the peptide 2, not only on cell survival (in vitro study) but also in pain (in vivo study). […] Our approach consisting in designing a minimalist active ERα17p-derived peptide, the pharmacologically inert KRSKK motif was excluded from our study. […] Regarding phenotypes, a GPER-dependent ..."}, "[10]": {"tested_on": "xenografted triple negative breast tumors", "conditions": "1.5 mg/kg body weight, three times a week for four weeks, mice; cited from earlier work"}, "[11]": {"conditions": "pH 9.1 (glycine NaOH 0.2 M in water), peptide 100 μM, 48 h incubation"}},
  "note": "Entries after “also recorded” stand apart in the source; their conditions may differ. Where two headings read alike, the source gives them in different places. No end group written: not given here.",
  "data": [
    {"compound": "CN1CC[C@]23c4c5ccc(O)c4O[C@H]2[C@@H](O)C=C[C@H]3[C@H]1C5", "note": "[morphine, reference compound]", "values": [
      {"measurement": "50% paw withdrawal threshold (PWT)", "setting": "[1]; 1 mg/kg, positive control, time not stated", "result": "0.672 ± 0.041", "unit": "g"}
    ]},
    {"compound": "NSLALSLT [peptide 1]", "values": [
      {"measurement": "decrease of the soluble pool (CD)", "setting": "[2]", "result": 70, "unit": "%"},
      {"measurement": "solubility for biological assays", "setting": "[3]", "result": "insufficiently soluble; also recorded: poor solubility"},
      {"measurement": "length of stacked fibrils (TEM)", "setting": "[4]; [11]", "result": 1.5, "unit": "μm"},
      {"measurement": "thickness of stacked fibrils (TEM)", "setting": "[4]; [11]", "result": 20, "unit": "nm"},
      {"measurement": "formation of aggregates (ThT fluorescence), fragments", "setting": "[5]; pH 9.1 (glycine NaOH 0.2 M), peptide 100 μM, 40 h, ERα17p as reference", "result": "exponential increase of the fluorescence signal"}
    ]},
    {"compound": "PLMIKRSKKNSLALSLT [ERα17p]", "values": [
      {"measurement": "dose from which anti-inflammatory and analgesic actions are supported", "setting": "inflammation and pain", "result": "≥ 2.5", "unit": "mg/kg"},
      {"measurement": "effect on cell viability", "setting": "[6]", "result": "inactive"},
      {"measurement": "effect on cell viability", "setting": "[7]", "result": "able to reduce the viability"},
      {"measurement": "aggregates seen by TEM", "setting": "[4]; pH 3.4, peptide 100 μM, 48 h incubation", "result": "no aggregate was detected"},
      {"measurement": "morphology of aggregates by TEM", "setting": "[4]; pH 7.4, peptide 100 μM, 48 h incubation", "result": "granulations resembling to a dense network of prefibrillar amyloid oligomers"},
      {"measurement": "morphology of aggregates by TEM", "setting": "[4]; pH 9.1, peptide 100 μM", "result": "entanglement network of mature amyloid fibrils"},
      {"measurement": "length of amyloid fibrils (TEM)", "setting": "[4]; pH 9.1, peptide 100 μM, 48 h incubation", "result": "> 1", "unit": "μm"},
      {"measurement": "50% paw withdrawal threshold (PWT)", "setting": "[1]; 1.25 mg/kg i.p., 45 min", "result": "0.141 ± 0.025", "unit": "g"},
      {"measurement": "50% paw withdrawal threshold (PWT)", "setting": "[1]; 2.5 mg/kg i.p., 45 min", "result": "0.293 ± 0.055", "unit": "g"},
      {"measurement": "calculated EC50 of anti-hyperalgesic action", "setting": "[1]; from AUC (0-180 min) of PWT variations, i.p., CFA model, von Frey test", "result": "3.7 ± 1.9", "unit": "mg/kg"},
      {"measurement": "change of intensity of aliphatic proton signals (1H-NMR)", "setting": "[8]; pH 3.4, peptide 100 μM", "result": "No significant change"},
      {"measurement": "total amount of peptide remaining soluble (1H-NMR)", "setting": "[8]; pH 7.4", "result": "about 40%"},
      {"measurement": "change of intensity of aliphatic proton signals (1H-NMR)", "setting": "[8]; pH 9.1, peptide 100 μM", "result": "decay of the proton signals followed by a plateau"},
      {"measurement": "Kd", "setting": "GPER", "result": "micromolar range"},
      {"measurement": "formation of aggregates (ThT fluorescence)", "setting": "[5]; pH 3.4 (0.2 M glycine HCl in water), peptide 10-100 μM, 40 h, ex 440/em 485 nm", "result": "No aggregation"},
      {"measurement": "formation of aggregates (ThT fluorescence)", "setting": "[5]; pH 7.4 (0.2 M KH2PO4/0.2 M K2HPO4 in water), peptide 50 and 100 μM, 40 h", "result": "exponential time-dependent increase of the formation of aggregates"},
      {"measurement": "delay before formation of aggregates (ThT fluorescence)", "setting": "[5]; pH 9.1 (0.2 M glycine NaOH in water), peptide 10 and 25 μM", "result": 18, "unit": "h"},
      {"measurement": "formation of aggregates (ThT fluorescence)", "setting": "[5]; pH 9.1 (0.2 M glycine NaOH in water), peptide 50 and 100 μM, 40 h", "result": "exponential time-dependent increase of the formation of aggregates"},
      {"measurement": "cellular internalization", "setting": "[9]", "result": "poorly internalized"},
      {"measurement": "decrease of the size of xenografted triple negative breast tumors", "setting": "[10]", "result": "about 50%"}
    ]}
  ]
}
